Data as given in patent US8148391B2 (Cephalon, Inc., priority 2006, dated 2012).

Assays:
[1] = biological target: T1, baculovirus-expressed ALK (Homo sapiens, UniProt Q9UM73); test: ALK Kinase Assay (ELISA-type, time-resolved fluorescence); assay type: biochemical; details: 1 μM ATP (Km level), 30 ng/ml ALK, 37° C., 15 minutes; read-out: ALK Activity (ALK kinase inhibition, IC50 class)
T1 construct: host or cells: baculovirus expression system
Method in brief: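 Wells were coated with phospholipase C-γ at 10 μg/mL in Tris-buffered saline. Adding 30 ng/ml enzyme started the reaction, which ran at 37° C for 15 minutes before Eu-N1 PT66 antibody detection. Percent inhibition versus log10 concentration gave IC50 by variable-slope fit.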

[2] = biological target: T2, c-Met (cytoplasmic domain) (Homo sapiens, UniProt P08581); test: c-Met Kinase Assay (same methods as for ALK, with modifications); assay type: biochemical; details: 1 μM ATP (Km level), 10 ng/mL c-Met; read-out: cMet Activity (c-Met kinase inhibition, IC50 class)
T2 construct: 10 ng/mL c-Met (cytoplasmic domain, Invitrogen Corporation #PV3143); purchased Invitrogen Corporation PV3143
Method in brief: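 IC50 values were fitted by variable-slope sigmoidal regression of percent inhibition against log compound concentration. Phosphorylation was read with Eu-N1 PT66 antibody after a 15 min, 37 °C reaction. The reaction was initiated with 10 ng/mL c-Met cytoplasmic domain on wells coated with 10 μg/mL PLC-γ in TBS.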

T2 sequence (P08581 956-1390 limits assumed): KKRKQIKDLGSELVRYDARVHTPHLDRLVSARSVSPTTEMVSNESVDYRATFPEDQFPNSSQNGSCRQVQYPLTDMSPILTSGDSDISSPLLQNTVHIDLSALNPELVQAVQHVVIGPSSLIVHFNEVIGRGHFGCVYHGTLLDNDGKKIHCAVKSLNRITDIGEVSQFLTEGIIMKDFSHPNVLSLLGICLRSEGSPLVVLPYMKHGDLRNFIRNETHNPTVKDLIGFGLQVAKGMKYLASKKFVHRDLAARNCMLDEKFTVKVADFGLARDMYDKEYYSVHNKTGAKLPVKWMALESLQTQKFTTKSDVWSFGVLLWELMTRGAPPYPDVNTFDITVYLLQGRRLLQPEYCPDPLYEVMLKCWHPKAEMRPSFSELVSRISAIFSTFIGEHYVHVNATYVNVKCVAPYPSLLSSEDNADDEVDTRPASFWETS
T1 sequence (Q9UM73 19-1620): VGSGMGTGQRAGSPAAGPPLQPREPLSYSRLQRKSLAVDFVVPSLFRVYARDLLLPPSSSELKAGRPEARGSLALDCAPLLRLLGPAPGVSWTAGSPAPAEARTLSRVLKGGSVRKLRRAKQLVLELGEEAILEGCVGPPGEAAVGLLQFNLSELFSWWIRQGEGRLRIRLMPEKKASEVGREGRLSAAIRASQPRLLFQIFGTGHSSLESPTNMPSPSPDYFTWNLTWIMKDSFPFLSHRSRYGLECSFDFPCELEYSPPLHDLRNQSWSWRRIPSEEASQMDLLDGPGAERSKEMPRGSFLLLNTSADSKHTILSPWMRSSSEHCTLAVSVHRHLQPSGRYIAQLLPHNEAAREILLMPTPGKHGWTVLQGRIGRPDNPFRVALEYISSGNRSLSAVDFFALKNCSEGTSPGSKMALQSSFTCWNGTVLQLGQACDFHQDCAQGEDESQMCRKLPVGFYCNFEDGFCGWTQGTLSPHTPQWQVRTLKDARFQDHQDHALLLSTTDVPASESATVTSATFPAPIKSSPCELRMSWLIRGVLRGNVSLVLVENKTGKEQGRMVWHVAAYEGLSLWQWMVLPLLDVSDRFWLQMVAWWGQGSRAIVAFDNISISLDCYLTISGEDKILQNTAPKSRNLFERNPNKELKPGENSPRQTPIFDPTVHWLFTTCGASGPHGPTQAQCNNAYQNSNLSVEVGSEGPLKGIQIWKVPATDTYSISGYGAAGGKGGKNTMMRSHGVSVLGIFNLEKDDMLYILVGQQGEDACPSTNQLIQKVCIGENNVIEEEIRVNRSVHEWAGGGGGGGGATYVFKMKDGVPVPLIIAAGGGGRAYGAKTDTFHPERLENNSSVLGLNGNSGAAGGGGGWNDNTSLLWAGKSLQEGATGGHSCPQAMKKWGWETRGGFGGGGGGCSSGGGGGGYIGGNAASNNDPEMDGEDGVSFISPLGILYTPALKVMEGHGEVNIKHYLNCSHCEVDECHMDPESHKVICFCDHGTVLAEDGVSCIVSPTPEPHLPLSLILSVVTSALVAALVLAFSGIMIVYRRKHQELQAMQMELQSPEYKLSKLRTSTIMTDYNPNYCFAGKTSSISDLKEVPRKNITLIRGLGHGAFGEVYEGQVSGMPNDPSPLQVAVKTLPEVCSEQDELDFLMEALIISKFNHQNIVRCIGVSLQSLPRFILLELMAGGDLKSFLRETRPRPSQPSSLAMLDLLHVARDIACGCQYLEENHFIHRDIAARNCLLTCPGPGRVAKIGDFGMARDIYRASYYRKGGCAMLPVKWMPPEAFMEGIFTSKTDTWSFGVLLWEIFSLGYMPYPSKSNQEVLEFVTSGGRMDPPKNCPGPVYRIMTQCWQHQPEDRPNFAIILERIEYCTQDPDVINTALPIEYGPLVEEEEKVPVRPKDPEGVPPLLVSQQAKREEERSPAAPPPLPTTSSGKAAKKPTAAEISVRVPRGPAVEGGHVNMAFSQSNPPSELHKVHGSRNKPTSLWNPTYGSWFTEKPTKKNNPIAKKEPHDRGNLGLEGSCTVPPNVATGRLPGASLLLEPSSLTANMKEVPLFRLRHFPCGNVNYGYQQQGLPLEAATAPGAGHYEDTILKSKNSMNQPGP

## CNC(=O)c1cccc(F)c1Nc1nc(Nc2ccc3c(c2)-n2cccc2C(=O)CO3)ncc1Cl [Example 1268, 2-[5-Chloro-2-(4-oxo-4,5-dihydro-6-oxa-10b-aza-benz[e]azulen-9-ylamino)-pyrimidin-4-ylamino]-3-fluoro-N-methyl-benzamide]
[1]
  IC50: 100 to 1000 nM
[2]
  IC50: < 100 nM

## CNC(=O)c1cccc(F)c1Nc1nc(Nc2ccc3c(c2)-n2cccc2C=CO3)ncc1Cl [Example 1269, 2-[5-Chloro-2-(6-oxa-10b-aza-benz[e]azulen-9-ylamino)-pyrimidin-4-ylamino]-3-fluoro-N-methyl-benzamide]
[1]
  IC50: 100 to 1000 nM
[2]
  IC50: < 100 nM

## CNC(=O)c1cccc(F)c1Nc1nc(Nc2ccc3c(c2)-n2ccnc2CCC3(C)C)ncc1Cl [Example 1270, 2-[5-Chloro-2-(6,6-dimethyl-5,6-dihydro-4H-3,10b-diaza-benz[e]azulen-9-ylamino)-pyrimidin-4-ylamino]-3-fluoro-N-methyl-benzamide]
[1]
  IC50: 100 to 1000 nM
[2]
  IC50: < 100 nM

## O=C1CCCc2ccc(Nc3ncc(Cl)c(Nc4c(F)cccc4OC4CCOC4)n3)cc2N1 (centres unmarked) [Example 1273, 8-{5-Chloro-4-[2-fluoro-6-(tetrahydro-furan-3-yloxy)-phenylamino]-pyrimidin-2-ylamino}-1,3,4,5-tetrahydro-1-benzazepin-2-one]
[1]
  IC50: 100 to 1000 nM
[2]
  IC50: 100 to 1000 nM

## COCCN1CCc2ccc(Nc3ncc(Cl)c(Nc4c(F)cccc4OC4CCOC4)n3)cc2CC1 (centres unmarked) [Example 1274, 5-Chloro-N(4)-[2-fluoro-6-(tetrahydro-furan-3-yloxy)-phenyl]-N(2)-[3-(2-methoxy-ethyl)-2,3,4,5-tetrahydro-1H-3-benzazepin-7-yl]-pyrimidine-2,4-diamine]
[1]
  IC50: 100 to 1000 nM
[2]
  IC50: 100 to 1000 nM

## COCCN1CCc2ccc(Nc3ncc(Cl)c(Nc4c(F)cccc4OCC4CCOC4)n3)cc2CC1 (centres unmarked) [Example 1275, 5-Chloro-N(4)-[2-fluoro-6-(tetrahydro-furan-3-ylmethoxy)-phenyl]-N(2)-[3-(2-methoxy-ethyl)-2,3,4,5-tetrahydro-1H-3-benzazepin-7-yl]-pyrimidine-2,4-diamine]
[1]
  IC50: 1000 to 10000 nM
[2]
  IC50: 1000 to 10000 nM

## O=C1CCCc2ccc(Nc3ncc(Cl)c(Nc4c(F)cccc4OCC4CCOC4)n3)cc2N1 (centres unmarked) [Example 1276, 8-{5-Chloro-4-[2-fluoro-6-(tetrahydro-furan-3-ylmethoxy)-phenylamino]-pyrimidin-2-ylamino}-1,3,4,5-tetrahydro-1-benzazepin-2-one]
[1]
  IC50: 100 to 1000 nM
[2]
  IC50: 100 to 1000 nM

## CNC(=O)c1cc(F)cc(F)c1Nc1nc(Nc2ccc3c(c2)CCN(CCOC)CC3)ncc1Cl [Example 1277, 2-{5-Chloro-2-[3-(2-methoxy-ethyl)-2,3,4,5-tetrahydro-1H-3-benzazepin-7-ylamino]-pyrimidin-4-ylamino}-3,5-difluoro-N-methyl-benzamide]
[1]
  IC50: 100 to 1000 nM
[2]
  IC50: 100 to 1000 nM

## CNC(=O)c1cc(F)cc(F)c1Nc1nc(Nc2ccc3c(c2)NC(=O)CCC3)ncc1Cl [Example 1278, 2-[5-Chloro-2-(2-oxo-2,3,4,5-tetrahydro-1H-1-benzazepin-8-ylamino)-pyrimidin-4-ylamino]-3,5-difluoro-N-methyl-benzamide]
[1]
  IC50: < 100 nM
[2]
  IC50: < 100 nM

## C#CCNC(=O)c1cccc(F)c1Nc1nc(Nc2ccc3c(c2)NC(=O)C(NC(=O)C(F)(F)F)CC3(C)C)ncc1Cl (centres unmarked) [Example 1279, 2-{5-Chloro-2-[5,5-dimethyl-2-oxo-3-(2,2,2-trifluoro-acetylamino)-2,3,4,5-tetrahydro-1H-1-benzazepin-8-ylamino]-pyrimidin-4-ylamino}-3-fluoro-N-prop-2-ynyl-benzamide]
[1]
  IC50: 100 to 1000 nM
[2]
  IC50: < 100 nM

## C#CCNC(=O)c1cccc(F)c1Nc1nc(Nc2ccc3c(c2)NC(=O)C(N)CC3(C)C)ncc1Cl (centres unmarked) [Example 1280, 2-[2-(3-Amino-5,5-dimethyl-2-oxo-2,3,4,5-tetrahydro-1H-1-benzazepin-8-ylamino)-5-chloro-pyrimidin-4-ylamino]-3-fluoro-N-prop-2-ynyl-benzamide]
[1]
  IC50: < 100 nM
[2]
  IC50: < 100 nM

## O=C1CCCc2ccc(Nc3ncc(Cl)c(Nc4c(F)cccc4OC4CCOCC4)n3)cc2N1 [Example 1281, 8-{5-Chloro-4-[2-fluoro-6-(tetrahydro-pyran-4-yloxy)-phenylamino]-pyrimidin-2-ylamino}-1,3,4,5-tetrahydro-1-benzazepin-2-one]
[1]
  IC50: 100 to 1000 nM
[2]
  IC50: 1000 to 10000 nM

## COCCN1CCc2ccc(Nc3ncc(Cl)c(Nc4c(F)cccc4OC4CCOCC4)n3)cc2CC1 [Example 1282, 5-Chloro-N(4)-[2-fluoro-6-(tetrahydro-pyran-4-yloxy)-phenyl]-N(2)-[3-(2-methoxy-ethyl)-2,3,4,5-tetrahydro-1H-3-benzazepin-7-yl]-pyrimidine-2,4-diamine]
[1]
  IC50: < 100 nM
[2]
  IC50: 1000 to 10000 nM

## O=C1CCCc2ccc(Nc3ncc(Cl)c(Nc4c(F)cccc4OCCCOCc4ccccc4)n3)cc2N1 [Example 1283, 8-{4-[2-(3-Benzyloxy-propoxy)-6-fluoro-phenylamino]-5-chloro-pyrimidin-2-ylamino}-1,3,4,5-tetrahydro-1-benzazepin-2-one]
[1]
  IC50: 1000 to 10000 nM
[2]
  IC50: > 10000 nM

## COCCN1CCc2ccc(Nc3ncc(Cl)c(Nc4c(F)cccc4OCCCOCc4ccccc4)n3)cc2CC1 [Example 1284, N(4)-[2-(3-Benzyloxy-propoxy)-6-fluoro-phenyl]-5-chloro-N(2)-[3-(2-methoxy-ethyl)-2,3,4,5-tetrahydro-1H-3-benzazepin-7-yl]-pyrimidine-2,4-diamine]
[1]
  IC50: 100 to 1000 nM
[2]
  IC50: 1000 to 10000 nM

## O=C1CCCc2ccc(Nc3ncc(Cl)c(Nc4c(F)cc(F)cc4N4CCOCC4)n3)cc2N1 [Example 1286, 8-[5-Chloro-4-(2,4-difluoro-6-morpholin-4-yl-phenylamino)-pyrimidin-2-ylamino]-1,3,4,5-tetrahydro-1-benzazepin-2-one]
[1]
  IC50: 1000 to 10000 nM
[2]
  IC50: 1000 to 10000 nM

## COCCN1CCc2ccc(Nc3ncc(Cl)c(Nc4c(F)cc(F)cc4N4CCOCC4)n3)cc2CC1 [Example 1287, 5-Chloro-N(4)-(2,4-difluoro-6-morpholin-4-yl-phenyl)-N(2)-[3-(2-methoxy-ethyl)-2,3,4,5-tetrahydro-1H-3-benzazepin-7-yl]-pyrimidine-2,4-diamine]
[1]
  IC50: 100 to 1000 nM
[2]
  IC50: 1000 to 10000 nM

## CNC(=O)c1cccc(F)c1Nc1nc(Nc2ccc3c(c2)NC(=O)C(N2CCOCC2)CC3(C)C)ncc1Cl (centres unmarked) [Example 1288, 2-[5-Chloro-2-(5,5-dimethyl-3-morpholin-4-yl-2-oxo-2,3,4,5-tetrahydro-1H-1-benzazepin-8-ylamino)-pyrimidin-4-ylamino]-3-fluoro-N-methyl-benzamide]
[1]
  IC50: 100 to 1000 nM
[2]
  IC50: < 100 nM

## C#CCNC(=O)c1cccc(F)c1Nc1nc(Nc2ccc3c(c2)NC(=O)C(NC(C)=O)CC3(C)C)ncc1Cl (centres unmarked) [Example 1290, 2-[2-(3-Acetylamino-5,5-dimethyl-2-oxo-2,3,4,5-tetrahydro-1H-1-benzazepin-8-ylamino)-5-chloro-pyrimidin-4-ylamino]-3-fluoro-N-prop-2-ynyl-benzamide]
[1]
  IC50: 1000 to 10000 nM
[2]
  IC50: < 100 nM

## CNC(=O)c1sccc1Nc1nc(Nc2ccc3c(c2)NC(=O)C(NC(C)=O)CC3(C)C)ncc1Cl (centres unmarked) [Example 1291, 3-[2-(3-Acetylamino-5,5-dimethyl-2-oxo-2,3,4,5-tetrahydro-1H-1-benzazepin-8-ylamino)-5-chloro-pyrimidin-4-ylamino]-thiophene-2-carboxylic acid methylamide]
[1]
  IC50: 1000 to 10000 nM
[2]
  IC50: < 100 nM

## C#CCNC(=O)c1cccc(F)c1Nc1nc(Nc2ccc3c(c2)NC(=O)C(NC(=O)COC)CC3(C)C)ncc1Cl (centres unmarked) [Example 1293, 2-{5-Chloro-2-[3-(2-methoxy-acetylamino)-5,5-dimethyl-2-oxo-2,3,4,5-tetrahydro-1H-1-benzazepin-8-ylamino]-pyrimidin-4-ylamino}-3-fluoro-N-prop-2-ynyl-benzamide]
[1]
  IC50: < 100 nM
[2]
  IC50: < 100 nM

## CNC(=O)c1cccc(F)c1Nc1nc(Nc2ccc3c(c2)NCC(NCCOC)CC3(C)C)ncc1Cl (centres unmarked) [Example 1294, 2-{5-Chloro-2-[3-(2-methoxy-ethylamino)-5,5-dimethyl-2,3,4,5-tetrahydro-1H-1-benzazepin-8-ylamino]-pyrimidin-4-ylamino}-3-fluoro-N-methyl-benzamide]
[1]
  IC50: < 100 nM
[2]
  IC50: < 100 nM

## C#CCNC(=O)c1cccc(F)c1Nc1nc(Nc2ccc3c(c2)NC(=O)C(NC(=O)N2CCCC2)CC3(C)C)ncc1Cl (centres unmarked) [Example 1296, Pyrrolidine-1-carboxylic acid {8-[5-chloro-4-(2-fluoro-6-prop-2-ynylcarbamoyl-phenylamino)-pyrimidin-2-ylamino]-5,5-dimethyl-2-oxo-2,3,4,5-tetrahydro-1H-1-benzazepin-3-yl}-amide]
[1]
  IC50: 100 to 1000 nM
[2]
  IC50: < 100 nM

## CN1C(=O)OCCc2cc(Nc3ncc(Cl)c(Nc4c(F)cccc4OC4CCOC4)n3)ccc21 (centres unmarked) [Example 1300, 2-{5-Chloro-4-[2-fluoro-6-(tetrahydro-furan-3-yloxy)-phenylamino]-pyrimidin-2-ylamino}-5-methyl-8,9-dihydro-5H-7-oxa-5-aza-benzocyclohepten-6-one]
[1]
  IC50: 100 to 1000 nM
[2]
  IC50: < 100 nM

## CNC(=O)c1ccccc1Nc1nc(Nc2ccc3c(c2)CNC(=O)CCN3C(=O)C(F)(F)F)ncc1Cl [Example 1301, 2-{5-Chloro-2-[4-oxo-1-(2,2,2-trifluoro-acetyl)-1,2,3,4,5,6-hexahydro-benzo[b][1,5]diazocin-8-ylamino]-pyrimidin-4-ylamino}-N-methyl-benzamide]
[1]
  IC50: < 100 nM
[2]
  IC50: < 100 nM
